# Experimental data reported in ChEMBL document CHEMBL4715772, “A facile stereoselective synthesis of dispiro-indeno pyrrolidine/pyrrolothiazole-thiochroman hybrids and evaluation of their antimycobacterial, anticancer and AchE inhibitory activities” (Bioorg Med Chem, 2016).
# The source made the active and inactive calls. The rule behind the calls is not given here.
# What was measured:
# [1] = Cytotoxicity against African green monkey Vero cells assessed as cell viability after 72 hrs by MTT assay; assay type: cell-based; details: chlorocebus sabaeus, read-out: MNCC
# [2] = tested on: Mycobacterium tuberculosis; experiment: Antimycobacterial activity against Mycobacterium tuberculosis H37Rv assessed as inhibition of bacterial growth at 3.198 mM by microdilution alamar blue broth assay; assay type: functional, organism-based
# [3] = tested on: Mycobacterium tuberculosis; experiment: Antimycobacterial activity against Mycobacterium tuberculosis H37Rv assessed as inhibition of bacterial growth at 0.17 mM by microdilution alamar blue broth assay relative to control; assay type: functional
# [4] = tested on: Mycobacterium tuberculosis; experiment: Antimycobacterial activity against Mycobacterium tuberculosis H37Rv assessed as inhibition of bacterial growth by microdilution alamar blue broth assay; assay type: functional, organism-based
structure (smiles),measurement,setting,value
NCC[C@H](O)C(=O)N[C@@H]1C[C@H](N)[C@@H](O[C@H]2O[C@H](CN)[C@@H](O)[C@H](O)[C@H]2O)[C@H](O)[C@H]1O[C@H]1O[C@H](CO)[C@@H](O)[C@H](N)[C@H]1O [AMIKACIN],MNTC at 72 h,[1],> 6.25 µg/mL
same,Activity,[2],Active
same,inhibition at 170 µM,[3],30%
same,IC90,[4],0.08 µM
same,MIC,[4],0.16 µM
